{
  "source": "paper PMC5029711",
  "about": "“Functional characterization and anti-cancer action of the clinical phase II cardiac Na^+/K^+ ATPase inhibitor istaroxime: in vitro and in vivo properties and cross talk with the membrane androgen receptor” (Oncotarget, 2016)",
  "molecular_target": "T1, Na^+/K^+ ATPase",
  "T1 construct": "gene ATP1A1; enzyme isolated from porcine cerebral cortex",
  "assay": "ATPase enzymatic activity assay (Sigma) with isolated porcine cerebral cortex enzyme",
  "format": "biochemical, Sus scrofa",
  "note": "pIC50: −log10 of the molar value.",
  "data": [
    {"smiles": "C[C@]12CCC(=NOCCN)C[C@@H]1C(=O)C[C@@H]1[C@@H]2CC[C@]2(C)C(=O)CC[C@@H]12", "note": "[istaroxime, (E, Z) 3-(2-aminoethoxyimino)-5α-androstane-6, 17-trione]", "values": [
      {"measurement": "pIC50", "result": 6.39}
    ]}
  ]
}
